Reference: US12169192B2, “Methods of identifying a hydrocarbon fuel” (Afton Chemical Corporation, priority 2020, dated 2024)

Key:
[1] = Partition of marker compound between water and heptane phases; format: physicochemical; conditions: for Initial Fluorescence Intensity in Water Phase / Fluorescence Intensity in Water Phase After Partition: heptane, excitation 540 nm, emission 590 nm; for Initial Fluorescence Intensity in Water Phase: 10 ppb marker; for Fluorescence Intensity in Water Phase After Partition: not background corrected; for Partition Ratio (Kd): water/heptane, corrected for background
Description: (§1) In this Example, the separation/partition of the marker compound between water and fuel phases was measured. The procedure for this Example included: measure fluorescence of 10 grams of water phase with and without marker compound present to determine background fluorescence. Then, 10 grams of hydrocarbon including 10 ppb of marker compound was added to the water and gently agitated for 1 minute. After mixing, the sample was allowed to completely separate into two phases. Thereafter, the fluorescence of the water phase was re-measured. Since the marker concentration is directly proportional to fluorescence intensity (at 10 ppb and within a range of interest), the Partition Ratio can be calculated from the initial and final tracer fluorescence intensities (corrected for any background fluorescence) from the water phase.
(§2) For this Example, Rhodamine B, Rhodamine 101, and Fluorescein marker compounds were used. For Rhodamine 101 and Rhodamine B measurements, excitation wavelength was 540 nm and emission wavelength was 590 nm. For Fluorescein measurements, excitation wavelength was 470 nm and emission wavelength was 515 nm.

[2] = Partition of marker compound between water and gasoline phases; format: physicochemical; conditions: for Initial Fluorescence Intensity in Water Phase / Fluorescence Intensity in Water Phase After Partition: gasoline, excitation 540 nm, emission 590 nm; for Initial Fluorescence Intensity in Water Phase: 10 ppb marker; for Fluorescence Intensity in Water Phase After Partition: not background corrected; for Partition Ratio (Kd): water/gasoline, corrected for background
Description: as §1, §2

Compound	Initial Fluorescence Intensity in Water Phase [1] [arb units]	Fluorescence Intensity in Water Phase After Partition [1] [arb units]	Partition Ratio (Kd) [1]	Initial Fluorescence Intensity in Water Phase [2] [arb units]	Fluorescence Intensity in Water Phase After Partition [2] [arb units]	Partition Ratio (Kd) [2]
CCN(CC)c1ccc2c(-c3ccccc3C(=O)O)c3ccc(=[N+](CC)CC)cc-3oc2c1.[Cl-] [Rhodamine B]	75	21.5	0.38	71.5	13	0.21
O=C([O-])c1ccccc1C1=c2cc3c4c(c2Oc2c1cc1c5c2CCCN5CCC1)CCC[N+]=4CCC3 [Rhodamine 101]	73	20	0.35	73.5	12.5	0.20
